Here are results for 20 compounds from paper PMC12282101, “Heat shock protein 90 chaperone activity is required for hepatitis A virus replication” (Journal of Virology, 2025).

Structures can show the parent of a compound that is named as a salt.

For one series, the system named is 18f-NLuc reporter virus. Nature of the series: microbe, parasite or virus in culture. The following applies: for activity at 10 µM: Hepatovirus A, Huh-7.5.1, 72 h, read-out: Normalized HAV production. The format is cell-based, Hepatitis A virus.
In the next series the test system is Huh-7.5.1 cells. The series can be described thus: Cell viability in the chemical screen (Cell TiterGlo). To be noted: 10 µM compound, 72 h. (ATP-based viability assays read luminescence as a measure of living cells.)

Take `CC(C)c1cc(Oc2c(Cl)cc(-n3nc(C#N)c(=O)[nH]c3=O)cc2Cl)n[nH]c1=O` [MGL3196]: the activity at 10 µM in the series on 18f-NLuc reporter virus amounted to 136%. The “Viability Percent DMSO” value in the series on Huh-7.5.1 cells stood at 118 Percent DMSO. `CC(=O)Oc1ccccc1C(=O)Nc1ncc([N+](=O)[O-])s1` [Nitazoxanide]: in the series on 18f-NLuc reporter virus, the activity at 10 µM was found to be 24%. Further, the “Viability Percent DMSO” value in the series with Huh-7.5.1 cells is 41 Percent DMSO.

Take `Nc1nc2c(ncn2COCCO)c(=O)[nH]1` [Aciclovir]: the activity at 10 µM with 18f-NLuc reporter virus stood at 99%. The “Viability Percent DMSO” value in the series on Huh-7.5.1 cells amounted to 110 Percent DMSO. On to `CCCCCCCCCC(=O)O[C@H]1CC[C@H]2[C@@H]3CCC4=CC(=O)CC[C@@H]4[C@H]3CC[C@]12C` [Nandrolone decanoate], for which the activity at 10 µM with 18f-NLuc reporter virus was determined as 117%. Moreover, the “Viability Percent DMSO” value in the series on Huh-7.5.1 cells is listed as 113 Percent DMSO. For the compound `Cc1c(O)cccc1C(=O)N[C@@H](CSc1ccccc1)[C@H](O)CN1C[C@H]2CCCC[C@H]2C[C@H]1C(=O)NC(C)(C)C` [Nelfinavir Mesylate], the activity at 10 µM in the series with 18f-NLuc reporter virus turned out to be 69%. Also, in the series on Huh-7.5.1 cells, the “Viability Percent DMSO” value was found to be 88 Percent DMSO. On to `CCC[C@H](NC(=O)[C@@H]1[C@H]2CCC[C@H]2CN1C(=O)[C@@H](NC(=O)[C@@H](NC(=O)c1cnccn1)C1CCCCC1)C(C)(C)C)C(=O)C(=O)NC1CC1` [Telaprevir], for which the activity at 10 µM in the series with 18f-NLuc reporter virus is 73%. In addition, in the series with Huh-7.5.1 cells, the “Viability Percent DMSO” value is recorded as 119 Percent DMSO. For `CC1(C)CC[C@]2(C(=O)O)CC[C@]3(C)C(=CC[C@@H]4[C@@]5(C)CCC(=O)C(C)(C)[C@@H]5CC[C@]43C)[C@@H]2C1` [Oleanonic Acid], in that order: 935% and 1.23 Percent DMSO. For `Nc1ccn([C@H]2CC[C@@H](CO)O2)c(=O)n1` [Zalcitabine], in that order: 98% and 99 Percent DMSO. Turning to `C=CC1=C(C(=O)O)N2C(=O)[C@@H](NC(=O)/C(=N\OCC(=O)O)c3csc(N)n3)[C@H]2SC1` [Cefixime], the activity at 10 µM with 18f-NLuc reporter virus stood at 90%. Besides, the “Viability Percent DMSO” value in the series with Huh-7.5.1 cells is given as 109 Percent DMSO. Consider `Cc1cn([C@H]2O[C@@H](CO)[C@H](O)[C@H]2F)c(=O)[nH]c1=O` [Clevudine], for which the activity at 10 µM in the series on 18f-NLuc reporter virus worked out at 84%. In addition, the “Viability Percent DMSO” value in the series with Huh-7.5.1 cells was 132 Percent DMSO.

On to `Cc1cc(C)c(Nc2ccnc(Nc3ccc(C#N)cc3)n2)c(C)c1` [Dapivirine], for which the activity at 10 µM with 18f-NLuc reporter virus amounted to 14%. Moreover, the “Viability Percent DMSO” value in the series with Huh-7.5.1 cells is given as 114 Percent DMSO. As for `CC(=O)OCC(CCn1cnc2cnc(N)nc21)COC(C)=O` [Famciclovir], the activity at 10 µM with 18f-NLuc reporter virus turned out to be 115%. Also, the “Viability Percent DMSO” value in the series on Huh-7.5.1 cells amounted to 123 Percent DMSO. In the case of `CO[C@H]1/C=C/O[C@@]2(C)Oc3c(C)c(O)c4c(O)c(c(/C=N/N5CCN(C)CC5)c(O)c4c3C2=O)NC(=O)/C(C)=C\C=C\[C@H](C)[C@H](O)[C@@H](C)[C@@H](O)[C@@H](C)[C@H](OC(C)=O)[C@@H]1C` [Rifampicin], in the series on 18f-NLuc reporter virus, the activity at 10 µM amounted to 86%. The “Viability Percent DMSO” value in the series on Huh-7.5.1 cells is recorded as 119 Percent DMSO. Maraviroc: in the series with 18f-NLuc reporter virus, the “Normalized HAV production” value is given as 0.94. As for `Clc1ccccc1C(c1ccccc1)(c1ccccc1)n1ccnc1` [Clotrimazole], in the series on 18f-NLuc reporter virus, the activity at 10 µM worked out at 85%. On the same count and under the same terms, with `CC(C)c1nc(CN(C)C(=O)N[C@H](C(=O)N[C@@H](Cc2ccccc2)C[C@H](O)[C@H](Cc2ccccc2)NC(=O)OCc2cncs2)C(C)C)cs1` [Ritonavir] the figure was 34%; with `Clc1ccc(COC(Cn2ccnc2)c2ccc(Cl)cc2Cl)c(Cl)c1` (stereo not drawn) [Miconazole], 74%.

In the case of `Clc1ccc(COC(Cn2ccnc2)c2ccc(Cl)cc2Cl)cc1` (stereo not drawn) [Econazole], the activity at 10 µM with 18f-NLuc reporter virus was determined as 100%.

Turning to `COC(=O)C1=C(C)NC(c2ncc(F)cc2F)=NC1c1ccc(F)cc1Cl` (racemic) [Bay 41-4109 racemate], in the series on 18f-NLuc reporter virus, the “Normalized HAV production” value is recorded as 0.84. Same read-out and setting: with `O=C[C@H](O)[C@H]1OC(=O)[C@@H](O)[C@H]1O` [Dicurone] the figure was 1.16.
